Several values for one entry are separate records, joined by “and”; a condition that tells them apart may be missing. Identical values can stand only once. Activity calls are given as the source filed them. No rule for the calls is given here.

One experiment concerns C. neoformans cell lysis, adenylate kinase release. Nature of the experiment: inducers of C. neoformans cell lysis, dose response, AK release, plate reader, dry powder, set 2 (AID 743303).
Conditions: not given
`Cc1cccc(OCCn2cnc3ccccc32)c1`: the AC40 is 12.8 µM.

Regarding `CCCCc1nc2ccccc2n1CCOc1ccccc1`, the AC40 is 6.27 µM.

Consider `CC(C)(C)c1ccc(OCCn2c(CO)nc3ccccc32)cc1`, for which the AC40 is 14.2 µM.

Regarding `CC(C)(C)c1ccc(OCCn2cnc3ccccc32)c(Cl)c1`, the AC40 was > 15 µM (inactive).

Regarding `S=c1[nH]c2cc(Cl)ccc2n1CCOc1ccccc1`, the AC40 is 2.57 µM.

Consider `Cc1ccc(OCCn2cnc3ccccc32)c(C)c1`, for which the AC40 was > 15 µM (inactive).

Regarding `CC(C)Oc1ccc(OCCn2cnc3ccccc32)cc1`, the AC40 was > 15 µM (inactive).

For the compound `Cc1ccccc1OCCn1cnc2ccccc21`, the AC40 was 15 µM.

For the compound `COCc1nc2ccccc2n1CCOc1ccc(C(C)(C)C)cc1`, the AC40 is > 15 µM (inactive).

Consider `OCc1nc2ccccc2n1CCOc1ccccc1`, for which the AC40 is > 15 µM (inactive).

On to `Fc1cccc2c1[nH]c(=S)n2CCOc1ccccc1`, for which the AC40 was 13.8 µM.

For the compound `Fc1ccc2c(c1)[nH]c(=S)n2CCOc1ccccc1`, the AC40 is 2.83 µM and 6.57 µM.

Regarding `CSc1nc2ccccc2n1CCOc1ccccc1`, the AC40 was > 15 µM (inactive).

For `NCC(=O)Nc1ccc(-n2nc(C(F)(F)F)cc2-c2ccc3c(ccc4ccccc43)c2)cc1`, the AC40 was 5 µM.

`Cc1ccc(C(C)C)c(OCCn2c(CO)nc3ccccc32)c1`: the AC40 is > 15 µM (inactive).

As for `Cc1cccc(OCCn2c(=S)[nH]c3ccc(C(F)(F)F)cc32)c1`, the AC40 is > 15 µM (inactive).

For the compound `Cc1ccc(C(C)C)c(OCCn2c(=S)[nH]c3ccccc32)c1`, the AC40 is 9.17 µM.

Regarding `COc1ccccc1OCCn1c(SC)nc2ccccc21`, the AC40 was > 15 µM (inactive).

In the case of `CC(C)c1ccccc1OCCn1c(=S)[nH]c2ccccc21`, the AC40 was 1.25 µM.

For the compound `CC(C)Oc1cccc(OCCn2cnc3ccccc32)c1`, the AC40 is > 15 µM (inactive).

As for `Cc1cc2ncn(CCOc3ccccc3)c2cc1C`, the AC40 is 10.1 µM.

As to `Clc1ccc(OCCn2cnc3ccccc32)cc1`, the AC40 was > 15 µM (inactive).

`Cc1ccc(OCCn2cnc3ccccc32)c(C(C)C)c1`: the AC40 was 4.09 µM.

On to `FC(F)(F)c1cccc(OCCn2cnc3ccccc32)c1`, for which the AC40 was > 15 µM (inactive).

For the compound `Cc1cccc(OCCn2c(=S)[nH]c3cc(F)ccc32)c1`, the AC40 is 2.42 µM and 3.03 µM.

For the compound `COc1ccc(OCCn2cnc3ccccc32)cc1`, the AC40 was > 15 µM (inactive).

With `Cc1cccc(OCCn2c(=S)[nH]c3c(F)cccc32)c1`, the AC40 is 3.23 µM and 1.51 µM.

Turning to `Cc1cc2ncn(CCOc3ccccc3C)c2cc1C`, the AC40 was 2.42 µM.

On to `Cc1ccc(OCCn2cnc3cc(C)c(C)cc32)cc1`, for which the AC40 is 1.94 µM.

`Cc1cc2ncn(CCOc3ccc4c(c3)CCC4)c2cc1C`: the AC40 is 4.6 µM.

As for `S=c1[nH]c2cccc(Cl)c2n1CCOc1ccccc1`, the AC40 was 2.83 µM.

With `CCCc1nc2ccccc2n1CCOc1ccccc1`, the AC40 is 7.46 µM.

As for `CCSc1nc2ccccc2n1CCOc1ccccc1`, the AC40 was > 15 µM (inactive).

In the case of `Clc1ccccc1OCCn1cnc2ccccc21`, the AC40 is > 15 µM (inactive).

On to `Cc1ccc(C(C)C)c(OCCn2c(N)nc3ccccc32)c1`, for which the AC40 was > 15 µM (inactive).

As for `Cc1cccc(OCCn2c(=S)[nH]c3ccccc32)c1`, the AC40 was 1.38 µM.

For the compound `c1ccc(COc2ccc(OCCn3cnc4ccccc43)cc2)cc1`, the AC40 was > 15 µM (inactive).

Take `CC(C)(C)c1ccc(OCCn2cnc3ccccc32)cc1`: the AC40 is 1.46 µM.

For `CC(C)c1ccccc1NCCn1c(=S)[nH]c2ccccc21`, the AC40 was 3.78 µM.

Turning to `CCc1nc2ccccc2n1CCOc1ccccc1`, the AC40 is > 15 µM (inactive).

Tested on in a further experiment: not listed separately
Described as above. Particulars: C. neoformans cell lysis, adenylate kinase release; at 15 µM (top of the series).
For the compound `CS(=O)(=O)c1ccc(OCCn2cnc3ccccc32)cc1`, the cell lysis activity was -28.4% (inactive).

Consider `COc1ccccc1OCCn1c(=S)[nH]c2ccccc21`, for which the cell lysis activity was -4.68% (inactive).

`Fc1ccc(OCCn2c(=S)[nH]c3ccccc32)cc1`: the cell lysis activity is -65.4% (inactive).

Regarding `COc1cc(C)ccc1OCCn1cnc2ccccc21`, the cell lysis activity was -57.7% (inactive).

For `Clc1ccc(OCCn2cnc3ccccc32)c(Cl)c1`, the cell lysis activity is -34% (inactive).

Consider `COc1cccc(OCCn2cnc3ccccc32)c1`, for which the cell lysis activity is -2.74% (inactive).

Consider `c1ccc2c(c1)ncn2CCOc1ccc2c(c1)CCC2`, for which the cell lysis activity was 33.8% (inactive).

As for `O=S(=O)(c1ccc(OCCn2cnc3ccccc32)cc1)N1CCOCC1`, the cell lysis activity was -15% (inactive).

As for `CSc1nc2ccccc2n1CCOc1cc(C)ccc1C(C)C`, the cell lysis activity is -20.1% (inactive).

Consider `Cc1ccc(C(C)C)c(OCCn2c(NC#N)nc3ccccc32)c1`, for which the cell lysis activity was -24% (inactive).

Regarding `Cc1ccc(C(C)C)c(OCCn2c(=O)[nH]c3ccccc32)c1`, the cell lysis activity is -24.5% (inactive).

`c1ccc(-c2ccc(OCCn3cnc4ccccc43)cc2)cc1`: the cell lysis activity was 6.2% (inactive).

As for `Cc1ccc2c(c1)[nH]c(=S)n2CCOc1ccccc1`, the cell lysis activity is 10.9% (inactive).

In the case of `CSc1nc2ccccc2n1CCOc1ccc(C)cc1`, the cell lysis activity is 16.4% (inactive).

As to `CC(C)Oc1ccc(OCCn2c(=S)[nH]c3ccccc32)cc1`, the cell lysis activity is 26.4% (inactive).

The record behind these values is PubChem BioAssay AID743303 (Broad Institute, 2014).
